Assay results: PMC12037410, “Pharmacological targeting of BMAL1 modulates circadian and immune pathways” (Nature Chemical Biology, 2025)
Residues, ends and D or L forms follow the SMILES beside them.

Molecular target: BMAL1 (Homo sapiens, UniProt O00327)
Parameters: PASB domain (residues 338–449); Protein thermal shift (PTS) fragment screen on recombinant human BMAL1(PASB), shift of melting temperature
Conditions: binder

Sequence of BMAL1 (O00327 338-449): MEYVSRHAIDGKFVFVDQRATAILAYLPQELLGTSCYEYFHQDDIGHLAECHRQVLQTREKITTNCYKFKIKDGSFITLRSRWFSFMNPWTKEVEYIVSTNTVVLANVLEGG

Row | Structure (SMILES) | Bmal1(PASB) dTmB
1 | NCCc1ccc(S(N)(=O)=O)cc1 [Prestw-Frag-1076, Compound 338] | -0.53

Same assay, conditions: dTmB; binder

Row | Structure (SMILES) | Bmal1(PASB) dTmB [°C]
2 | CN1[C@@H]2CC[C@H]1CC(O)C2 (some centres unmarked) [Prestw-Frag-0608, Compound 128] | -0.41
3 | CC(C)(C)NCC(O)COc1ccccc1C1CCCC1 (centres unmarked) [Prestw-Frag-0674, Compound 468] | -1.95
4 | O=c1ccc2ccccc2o1 [Prestw-Frag-1000, Compound 307] | -0.26
5 | Nc1cc2ccccc2oc1=O [Prestw-Frag-1001, Compound 197] | 0.68
6 | Cc1cc(-c2ccccc2)nnc1N [Prestw-Frag-1003, Compound 243] | -0.88
7 | NC(=O)NS(=O)(=O)c1ccccc1 [Prestw-Frag-1006, Compound 100] | 0.09
8 | CC(=O)Nc1nncs1 [Prestw-Frag-1008, Compound 401] | -0.09
9 | Nc1nncs1 [Prestw-Frag-1009, Compound 188] | -0.33
10 | COC(=O)C(c1ccccc1)c1ccccc1 [Prestw-Frag-1013, Compound 353] | -1.32
11 | c1ccc2c3c([nH]c2c1)CNCC3 [Prestw-Frag-1014, Compound 154] | -0.81
12 | Cc1cc(C(C)(C)CC(C)(C)C)ccc1O [Prestw-Frag-1016, Compound 351] | 0.69
13 | C[N+](C)(CCO)Cc1ccccc1 [Prestw-Frag-1017, Compound 159] | -0.27
14 | NC(=O)Cc1cccs1 [Prestw-Frag-1019, Compound 237] | -0.24
15 | NCCCCc1ccccc1 [Prestw-Frag-1031, Compound 371] | -0.34
16 | COc1ccc(Cc2ccc(OC)cc2)cc1 [Prestw-Frag-1033, Compound 354] | -0.11
17 | NCc1c(N)ccc(Cl)c1Cl [Prestw-Frag-1039, Compound 337] | 0.01
18 | O=C(O)c1ccccc1O [Prestw-Frag-1045, Compound 55] | -0.68
19 | CCC(=O)NC1=NC=NC2=NC=NC21 (centres unmarked) [Prestw-Frag-1047, Compound 47] | -0.65
20 | Nc1nc2ccccc2n1Cc1ccc(F)cc1 [Prestw-Frag-1050, Compound 460] | -1.64
21 | COc1ccc(CCN2CCC(N)CC2)cc1 [Prestw-Frag-1051, Compound 427] | -0.58
22 | CC(C)(Oc1ccccc1)C(=O)O [Prestw-Frag-1053, Compound 221] | 0.07

Row | Structure (SMILES) | Bmal1(PASB) dTmB [°C]
23 | Nc1ccc[nH]c1=O [Prestw-Frag-1060, Compound 123] | -2.04
24 | COc1cc2c(cc1O)CCN[C@H]2C [Prestw-Frag-1063, Compound 388] | -0.57
25 | COc1ccc(CCN)cc1O [Prestw-Frag-1064, Compound 320] | -0.32
26 | O=[N+]([O-])c1ccc(CO)cc1 [Prestw-Frag-1071, Compound 105] | -0.41
27 | CCC1=C(C)CN(C(=O)NCCc2ccccc2)C1=O [Prestw-Frag-1075, Compound 420] | -0.68
28 | CC(=O)c1cc(Cl)ccc1O [Prestw-Frag-1083, Compound 280] | -0.22
29 | O=c1[nH]c2ccccc2o1 [Prestw-Frag-1087, Compound 245] | -0.27
30 | CC(=O)c1ccc(N2CCNCC2)c(F)c1 [Prestw-Frag-1094, Compound 141] | -0.42
31 | Cc1ncsc1CCO [Prestw-Frag-1098, Compound 189] | -0.60
32 | NC(=O)[C@H](N)c1ccccc1 [Prestw-Frag-1099, Compound 271] | -0.22
33 | OC(c1ccccc1)c1ccc(Cl)cc1 (centres unmarked) [Prestw-Frag-1106, Compound 474] | -2.07
34 | c1ccc(N2CCNCC2)nc1 [Prestw-Frag-1110, Compound 364] | -0.48
35 | COC(=O)c1scc(C)c1N [Prestw-Frag-1111, Compound 362] | -0.95
36 | CCN(Cc1ccccc1)c1ccccc1 [Prestw-Frag-1121, Compound 375] | -1.19
37 | OC(c1ccccc1)c1ccccc1 [Prestw-Frag-1122, Compound 454] | -1.61
38 | NCC(CC(=O)O)c1ccccc1 (centres unmarked) [Prestw-Frag-1125, Compound 234] | -0.06
39 | O=C(O)CCc1ccc(Cl)cc1 [Prestw-Frag-1126, Compound 340] | -0.19
40 | Cc1oncc1C(N)=O [Prestw-Frag-1128, Compound 133] | -0.10
41 | Cc1c(O)c2ccccc2oc1=O [Prestw-Frag-1130, Compound 324] | 0.05
42 | O=c1cc(O)c2ccccc2o1 [Prestw-Frag-1131, Compound 301] | 0.28
43 | COc1ccc2ccncc2c1 [Prestw-Frag-1133, Compound 321] | -1.08

Row | Structure (SMILES) | Bmal1(PASB) dTmB [°C]
44 | Cn1c(=O)[nH]c2nc[nH]c2c1=O [Prestw-Frag-1138, Compound 38] | -0.59
45 | CNC(C)(C)Cc1ccccc1 [Prestw-Frag-1141, Compound 101] | -0.69
46 | COc1cc(N)ncn1 [Prestw-Frag-1154, Compound 185] | -0.03
47 | Oc1cccc2c1CCCC2 [Prestw-Frag-1156, Compound 412] | -1.05
48 | Cc1nnc(N)s1 [Prestw-Frag-1161, Compound 49] | -1.77
49 | C(=C\c1ccccc1)/CN1CCNCC1 [Prestw-Frag-1163, Compound 295] | -0.92
50 | c1ccc2[nH]c(CN3CCCC3)nc2c1 [Prestw-Frag-1164, Compound 180] | -0.18
51 | COc1ccc(N)nn1 [Prestw-Frag-1167, Compound 140] | -0.58
52 | OC(Cn1ccnc1)c1ccc(Cl)cc1Cl (centres unmarked) [Prestw-Frag-1182, Compound 411] | -0.85
53 | COc1cc2ccncc2cc1OC [Prestw-Frag-1183, Compound 290] | -1.26
54 | Nc1ccc(Cl)nn1 [Prestw-Frag-1184, Compound 263] | -0.26
55 | CN1CCC[C@H]1c1cccnc1 [Prestw-Frag-1187, Compound 13] | -0.52
56 | Cc1c(N)cccc1C(F)(F)F [Prestw-Frag-1189, Compound 334] | -0.15
57 | O=C(O)c1cccnc1Nc1ccccc1 [Prestw-Frag-1191, Compound 63] | 0.02
58 | c1ccc(C(CCN2CCCCC2)c2ccccc2)cc1 [Prestw-Frag-1193, Compound 402] | -2.05
59 | CC(Oc1ccccc1)C(N)=O (centres unmarked) [Prestw-Frag-1200, Compound 240] | -0.43
60 | CN1CCN(c2nccc(N)n2)CC1 [Prestw-Frag-1204, Compound 238] | -0.40
61 | CS(=O)(=O)c1ccc(N)cc1 [Prestw-Frag-1214, Compound 111] | -0.40
62 | COc1cccc2c1CCCC2=O [Prestw-Frag-1236, Compound 356] | -1.28
63 | Oc1ccc(-c2ccc(F)cc2F)cc1 [Prestw-Frag-1237, Compound 467] | -0.75
64 | O=C(O)c1cccc(-c2ccc(F)cc2F)c1 [Prestw-Frag-1238, Compound 368] | -0.92

Row | Structure (SMILES) | Bmal1(PASB) dTmB [°C]
65 | O=C(O)c1cc(-c2ccc(F)cc2)ccc1O [Prestw-Frag-1239, Compound 277] | -1.13
66 | O=C(O)c1cc(-c2ccccc2)ccc1O [Prestw-Frag-1240, Compound 74] | -0.48
67 | CC(C)C1NCCc2c1[nH]c1ccccc21 (centres unmarked) [Prestw-Frag-1264, Compound 134] | -1.09
68 | NC1=NCCN1 [Prestw-Frag-1268, Compound 246] | -0.47
69 | COc1cc2c(cc1OC)C(C)N(C)CC2 (centres unmarked) [Prestw-Frag-1273, Compound 218] | -0.29
70 | C[C@H](N)C(=O)N1CCC[C@H]1C(=O)O [Prestw-Frag-1275, Compound 264] (H-Ala-Pro-OH) | -0.70
71 | OCc1cc2ccccc2[nH]1 [Prestw-Frag-1297, Compound 419] | 0.70
72 | CCc1cccc2c(CCO)c[nH]c12 [Prestw-Frag-1299, Compound 129] | -0.11
73 | OCCn1ccnc1 [Prestw-Frag-1303, Compound 120] | 0.13
74 | C[C@H]1NC(=O)NC1=O [Prestw-Frag-1311, Compound 224] | -0.36
75 | COc1ccc(C(=O)O)cc1N1CCCC1 [Prestw-Frag-1313, Compound 40] | -0.37
76 | O=C(O)c1ccccc1Nc1cccc(Cl)c1 [Prestw-Frag-1319, Compound 28] | -2.88
77 | Cc1cccc(Nc2ccccc2C(=O)O)c1 [Prestw-Frag-1320, Compound 17] | -0.74
78 | Nc1cccc(C(F)(F)F)c1 [Prestw-Frag-1322, Compound 231] | 0.29
79 | Fc1ccc(C(c2ccc(F)cc2)N2CCNCC2)cc1 [Prestw-Frag-1323, Compound 452] | -2.55
80 | CN1CCN(C(c2ccccc2)c2ccccc2)CC1 [Prestw-Frag-1325, Compound 405] | -0.51
81 | COc1ccccc1OCCCO [Prestw-Frag-1335, Compound 370] | 4.16
82 | OCC(O)COc1ccccc1 (centres unmarked) [Prestw-Frag-1337, Compound 306] | 0.63
83 | COc1ccccc1OCCO [Prestw-Frag-1338, Compound 363] | 0.76
84 | CCC(C(=O)OCCN(CC)CC)c1ccccc1 (centres unmarked) [Prestw-Frag-1343, Compound 396] | -1.01
85 | OC(c1ccc(Cl)cc1)c1ccccn1 (centres unmarked) [Prestw-Frag-1346, Compound 414] | -1.29

Same assay, conditions: dTmB; binder; Bmal1(PASB) dTmB

Row | Structure (SMILES) | Bmal1(PASB) dTmB [°C]
86 | CC1=NN(c2ccccc2)C(=O)C1 [Prestw-Frag-1028, Compound 259] | 0.76
